Results reported in patent publication US20210138077A1, “SELECTIVE DRUG RELEASE FROM INTERNALIZED CONJUGATES OF BIOLOGICALLY ACTIVE COMPOUNDS” (Seagen Inc., priority 2019, published 2021).
Non-standard residues stand in square brackets, D forms with d. No end group written: not given here. Met(O) = CS(=O)CC[C@H](N)C(=O)O; Cit = NC(=O)NCCC[C@H](N)C(=O)O

Legend:
[1] = tested on: normal human bone marrow homogenate; assay: Fluorescence assay of tripeptide library: proteolysis by normal tissue homogenate; type: biochemical; details: for Normalized Normal Tissue: Table 1A, normalized fluorescence fold change at final time point (275-315 min), pH 4.5, 37° C.; for Normalized Normal: Table 1B, normalized fluorescence
Experimental: (§1) Fluorescence assay. To a 384 well plate was added a mixture of tumor or normal tissue homogenate and citrate buffer (100 mM, pH 4.5; 9 μL) followed by a fluorescently labelled library compound (1 μL; dissolved in 50% MeCN). The reaction was incubated at 37° C. and fluorescence (330 nm excitation, 450 nm emission) was detected several times over a 6-hr. period. The fluorescence fold change was determined by dividing the fluorescence value at each time point with the background fluorescence when no homogenate was added.
(§2) Tissue Homogenization. Normal tissue or tumor tissue from mouse xenografts were suspended in buffer (50 mM Tris, 150 mM KCl, pH 7.0) and added to a tube containing Matrix D lysing beads (mpbio). The tissue was homogenized with a Precellys™ 24 homogenizer. The homogenized sample was centrifuged at 1000×g for 10 min and the resulting supernatant was collected then frozen at −80° C. until further use.
(§3) The library members were synthesized on cellulose support according to the method by Hilpert, K. et al. in “Peptide arrays on cellulose support: SPOT synthesis, a time and cost efficient method for synthesis of large numbers of peptides in a parallel and addressable fashion”, Nature Protocols (2007) 2(6): 1333-1349, the method of which is specifically incorporated by reference herein, with one important modification. That modification uses laser-perforated cellulose paper so that synthesis of each library member occurs with a clearly defined circular disc. After SPOT synthesis, each circular area, which separately contains a discrete library member, is punched out by a multichannel pipette into individual wells of a microtiter plate. The microtiter plate is then placed into an ammonia chamber to cleave the tripeptide containing model compounds from the cellulose discs. The cleaved compounds were then transferred to a fresh microtiter plate after solubilizing each into 50% aqueous acetonitrile. The contents of the wells were then assessed for susceptibility to proteolysis by tumor tissue homogenate in comparison to a comparator peptide-based drug linker compound having the dipeptide val-cit, which is replaced by the -[P1]-[P2]-[P3]-tripeptides in the library of drug linker compounds, by measuring the fluorescence found in each of the wells of the library after contacting with tumor or normal tissue homogenate and dividing it by the fluorescence found for tumor or normal tissue homogenate cleavage of the comparator dipeptide-containing drug linker compound.
The normalized normal tissue fluorescence values are from proteolysis by normal human bone marrow. Human bone marrow was chosen as the normal tissue because it is the site of an adverse event (neutropenia) that has been associated with administering to a human subject in need thereof an effective amount of an Antibody Drug Conjugate having drug linker moieties derived from the Drug Linker compound m-val-cit-PABC-MMAE.
(§4) A normalized fluorescence value is calculated by dividing the fluorescence value at the final time point (275-315 min) from addition of a tissue homogenate by the fluorescence value when no tissue homogenate was added. That value was then normalized for each peptide in each homogenate by dividing it by the average value for that homogenate. […] The normalized tumor tissue values of Table 1 were then determined by averaging the normalized fluorescence value for each peptide across all 4 cancer homogenates that were tested. Those tumor homogenates were derived from xenograft models for HPAF-II (Nude mouse), Ramos (SCID mouse), SK-Mel-5 (Nude mouse) and SU-DHL-4 (SCID mouse). The normalized normal tissue values of Table 1 were similarly calculated using homogenized bone marrow. The Tumor/Normal ratios of Table 1A were determined by dividing the normalized tumor tissue values by the normalized normal tissue values.

[2] = tested on: tumor tissue homogenates derived from four mouse xenograft models (HPAF-II, Ramos, SK-Mel-5, SU-DHL-4); assay: Fluorescence assay of tripeptide library: proteolysis by tumor tissue homogenate; type: biochemical; details: for Normalized Tumor Tissue / Normalized Tumor: normalized fluorescence; for Normalized Tumor Tissue: averaged across 4 tumor homogenates (HPAF-II, Ramos, SK-Mel-5, SU-DHL-4); for Normalized Tumor: averaged across 4 tumor homogenates
Experimental: as §1, §2, §3
The normalized fluorescence value for tumor homogenate proteolysis is an averaged value for tumor tissue homogenates derived from four mouse xenograft models. Calculation of those normalized values are described following Table 1A.
as §4

[3] = Table 1A, normalized tumor tissue value divided by normalized normal tissue value
[4] = Table 1B, normalized tumor value divided by normalized normal value

Substance | Normalized Normal Tissue [1] | Normalized Tumor Tissue ([2]; Table 1A) | Tumor/Normal [2, 3] | Normalized Normal [1] | Normalized Tumor ([2]; Table 1B) | Tumor/Normal [2, 4]
Ala-Cit-Cit | 1.02 | 2.58 | 2.53 |  |  | 
Cit-Cit-Cit | 1.12 | 2.82 | 2.52 |  |  | 
Cit-Glu-Cit | 1.21 | 3.16 | 2.61 |  |  | 
DLeu-Leu-Cit | 1.37 | 3.70 | 2.70 |  |  | 
Glu-Ala-Glu | 1.05 | 2.66 | 2.53 |  |  | 
Glu-Glu-[Cit] | 1.22 | 3.14 | 2.57 |  |  | 
Lys-Glu-[Met(O)] |  |  |  | 0.70 | 1.16 | 1.66
Pro-Ala-Glu | 0.78 | 2.48 | 3.16 |  |  | 
Pro-Ala-[Cit] | 1.07 | 3.03 | 2.84 |  |  | 
Pro-Cit-Cit | 0.95 | 2.54 | 2.67 |  |  | 
Pro-Glu-Ala |  |  |  | 0.70 | 1.28 | 1.84
Pro-Glu-Glu | 0.73 | 1.87 | 2.58 |  |  | 
Pro-Glu-Lys | 0.72 | 1.85 | 2.57 |  |  | 
Pro-Glu-[Cit] | 0.85 | 2.35 | 2.77 |  |  | 
Pro-Lys-Glu | 0.72 | 1.88 | 2.59 |  |  | 
Pro-[Cit]-Glu | 0.85 | 2.27 | 2.68 |  |  | 
Thr-Cit-Cit | 0.89 | 2.26 | 2.53 |  |  | 
[Cit]-Glu-Glu | 0.97 | 2.44 | 2.53 |  |  | 
[dL]-Ala-Lys |  |  |  | 0.68 | 1.16 | 1.70
[dL]-Glu-Lys |  |  |  | 0.62 | 1.06 | 1.71
[dL]-Leu-Glu | 1.12 | 3.45 | 3.09 |  |  | 
[dL]-Leu-Lys | 0.87 | 2.20 | 2.54 |  |  | 
[dL]-Leu-[Met(O)] | 0.66 | 1.70 | 2.58 | 0.66 | 1.70 | 2.58
[dL]-Phe-Glu | 0.89 | 2.27 | 2.55 |  |  | 
[dL]-[Cit]-Glu |  |  |  | 0.64 | 1.07 | 1.67
